ChEMBL document CHEMBL1150228, “Synthesis of a novel lysophosphatidylcholine” (J Nat Prod, 2001)

Target: T1, 3-hydroxy-3-methylglutaryl-coenzyme A reductase (Homo sapiens, UniProt P04035)
T1 sequence (P04035 whole entry): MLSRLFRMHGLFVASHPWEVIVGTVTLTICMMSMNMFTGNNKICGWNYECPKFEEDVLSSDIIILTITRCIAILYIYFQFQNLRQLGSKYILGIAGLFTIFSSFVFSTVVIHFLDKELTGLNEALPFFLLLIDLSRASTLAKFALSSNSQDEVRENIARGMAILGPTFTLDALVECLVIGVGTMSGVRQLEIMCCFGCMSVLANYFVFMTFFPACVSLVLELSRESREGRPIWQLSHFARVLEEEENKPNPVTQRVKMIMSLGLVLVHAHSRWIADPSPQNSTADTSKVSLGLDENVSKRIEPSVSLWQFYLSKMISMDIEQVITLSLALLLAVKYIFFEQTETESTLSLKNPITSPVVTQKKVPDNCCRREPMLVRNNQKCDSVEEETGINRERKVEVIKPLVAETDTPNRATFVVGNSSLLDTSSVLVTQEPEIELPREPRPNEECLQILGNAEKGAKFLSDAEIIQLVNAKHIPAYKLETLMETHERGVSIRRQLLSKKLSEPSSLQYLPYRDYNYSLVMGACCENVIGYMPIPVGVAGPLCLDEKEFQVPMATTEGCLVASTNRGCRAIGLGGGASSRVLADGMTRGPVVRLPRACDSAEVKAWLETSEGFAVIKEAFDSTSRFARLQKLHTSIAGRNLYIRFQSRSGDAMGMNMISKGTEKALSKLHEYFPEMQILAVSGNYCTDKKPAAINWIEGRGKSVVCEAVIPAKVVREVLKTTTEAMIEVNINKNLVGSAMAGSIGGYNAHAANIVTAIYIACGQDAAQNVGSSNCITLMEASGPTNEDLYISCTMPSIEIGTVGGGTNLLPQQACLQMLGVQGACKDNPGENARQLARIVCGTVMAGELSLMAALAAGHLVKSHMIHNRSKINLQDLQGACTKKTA
Experiment: Inhibition of HMG CoA reductase

- IC50: 112 µM
SMILES: CCCCCC[C@@H]1C[C@@H]1CCCCCCCCCC(=O)OCC(O)COP(=O)([O-])OCC[N+](C)(C)C (relative stereo) [LYSOPHOSPHATIDYLCHOLINE]
